Test results published in PubChem BioAssay AID328 (DTP/NCI, 2004).
Values joined by “and” are separate entries in the source; they are usually repeats but may differ in a detail not shown here. Identical values can stand only once. Toxic doses and inconclusive results are not listed. How the source made its calls: active means survival T/C of 150% or more; inactive means T/C below 125% in these data.

Tested on: BDF1 mice, P388 leukemia ip, median survival T/C
Assay: NCI In Vivo Anticancer Drug Screen. Data for tumor model P388 Leukemia (intraperitoneal) in B6D2F1 (BDF1) mice
Conditions: endpoint: median survival time, higher = longer survival
Outline: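 Survival ratio, drug arm over vehicle arm, in mice with a transplanted tumour.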

[1] = dose: 6.25 mg/kg/injection, schedule: Q01DX009 (ip), vehicle: saline with Tween-80
[2] = dose: 12.5 mg/kg/injection, schedule: Q01DX009 (ip), vehicle: saline with Tween-80
[3] = dose: 25.0 mg/kg/injection, schedule: Q01DX009 (ip), vehicle: saline with Tween-80
[4] = dose: 50.0 mg/kg/injection, schedule: Q01DX009 (ip), vehicle: saline with Tween-80
[5] = dose: 100.0 mg/kg/injection, schedule: Q04DX003 (ip), vehicle: saline with Tween-80
[6] = dose: 200.0 mg/kg/injection, schedule: Q01DX009 (ip), vehicle: saline with Tween-80

Measured: T/C

CCCCCCCCCCCCNC(=O)CCC(=O)O
inactive: dose: 37.5 mg/kg/injection, schedule: Q01DX009 (ip), vehicle: saline with Tween-80 91 % of control | dose: 75.0 mg/kg/injection, schedule: Q01DX009 (ip), vehicle: saline with Tween-80 87 % of control

Clc1ccccc1-c1ncc2cnccn12
inactive: dose: 0.19 mg/kg/injection, schedule: Q01DX009 (ip), vehicle: saline with Tween-80 102 % of control | dose: 0.39 mg/kg/injection, schedule: Q01DX009 (ip), vehicle: saline with Tween-80 102 % of control | dose: 0.78 mg/kg/injection, schedule: Q01DX009 (ip), vehicle: saline with Tween-80 106 % of control | dose: 1.56 mg/kg/injection, schedule: Q01DX009 (ip), vehicle: saline with Tween-80 102 % of control | [1] 99 % of control and 103 % of control | [2] 86 % of control | [3] 88 % of control | dose: 25.0 mg/kg/injection, schedule: Q04DX003 (ip), vehicle: saline with Tween-80 115 % of control | [4] 86 % of control | dose: 50.0 mg/kg/injection, schedule: Q04DX003 (ip), vehicle: saline with Tween-80 107 % of control | [5] 88 % of control

COC1OC2COC(c3ccccc3)OC2C2OC12 (configuration not stated)
inactive: [1] 109 % of control | [2] 99 % of control | [3] 96 % of control | [4] 100 % of control | [5] 109 % of control | dose: 200.0 mg/kg/injection, schedule: Q04DX003 (ip), vehicle: saline with Tween-80 100 % of control | dose: 400.0 mg/kg/injection, schedule: Q04DX003 (ip), vehicle: saline with Tween-80 100 % of control

NCCCNCCCCNCCCN
inactive: dose: 50.0 mg/kg/injection, schedule: Q01DX001 (ip), vehicle: saline 110 % of control

COC(=O)CSc1ncc2cnccn12
inactive: dose: 100.0 mg/kg/injection, schedule: Q04DX003 (ip), vehicle: water 109 % of control | dose: 200.0 mg/kg/injection, schedule: Q04DX003 (ip), vehicle: water 100 % of control | dose: 400.0 mg/kg/injection, schedule: Q04DX003 (ip), vehicle: water 109 % of control

c1ccc([P+](CCCCCCCCCC[P+](c2ccccc2)(c2ccccc2)c2ccccc2)(c2ccccc2)c2ccccc2)cc1
inactive: dose: 2.5 mg/kg/injection, schedule: Q01DX010 (ip), vehicle: saline 100 % of control | dose: 5.0 mg/kg/injection, schedule: Q01DX010 (ip), vehicle: saline 109 % of control

C=C(C)CSC(=S)NNc1ccccc1
inactive: dose: 37.5 mg/kg/injection, schedule: Q04DX003 (ip), vehicle: acetone 109 % of control | dose: 56.25 mg/kg/injection, schedule: Q01DX009 (ip), vehicle: Klucel (hydroxypropylcellulose) (HPC) 115 % of control | dose: 75.0 mg/kg/injection, schedule: Q04DX003 (ip), vehicle: acetone 100 % of control | dose: 100.0 mg/kg/injection, schedule: Q01DX001 (ip), vehicle: alcohol 100 % of control | dose: 112.5 mg/kg/injection, schedule: Q01DX009 (ip), vehicle: Klucel (hydroxypropylcellulose) (HPC) 110 % of control | dose: 150.0 mg/kg/injection, schedule: Q01DX009 (ip), vehicle: Klucel (hydroxypropylcellulose) (HPC) 115 % of control | dose: 150.0 mg/kg/injection, schedule: Q01DX009 (ip), vehicle: alcohol 109 % of control | dose: 150.0 mg/kg/injection, schedule: Q04DX003 (ip), vehicle: acetone 104 % of control | dose: 200.0 mg/kg/injection, schedule: Q01DX001 (ip), vehicle: alcohol 104 % of control | dose: 225.0 mg/kg/injection, schedule: Q01DX009 (ip), vehicle: Klucel (hydroxypropylcellulose) (HPC) 115 % of control | dose: 225.0 mg/kg/injection, schedule: Q04DX003 (ip), vehicle: alcohol 100 % of control | dose: 335.0 mg/kg/injection, schedule: Q01DX009 (ip), vehicle: Klucel (hydroxypropylcellulose) (HPC) 115 % of control | dose: 340.0 mg/kg/injection, schedule: Q04DX003 (ip), vehicle: alcohol 95 % of control

CCCC(=O)c1c(C)cc(C)cc1C
inactive: dose: 100.0 mg/kg/injection, schedule: Q04DX003 (ip), vehicle: Klucel (hydroxypropylcellulose) (HPC) 110 % of control | dose: 200.0 mg/kg/injection, schedule: Q04DX003 (ip), vehicle: Klucel (hydroxypropylcellulose) (HPC) 110 % of control | dose: 400.0 mg/kg/injection, schedule: Q04DX003 (ip), vehicle: Klucel (hydroxypropylcellulose) (HPC) 120 % of control

COC(=O)c1cc(Cl)nc2nc(Cl)nc(Cl)c12
inactive: dose: 50.0 mg/kg/injection, schedule: Q01DX009 (ip), vehicle: DMSO 114 % of control | dose: 100.0 mg/kg/injection, schedule: Q01DX009 (ip), vehicle: DMSO 112 % of control | dose: 200.0 mg/kg/injection, schedule: Q01DX009 (ip), vehicle: DMSO 102 % of control

CS(=O)(=O)N(CC(=O)O)Cc1ccc(Cl)c(Cl)c1
inactive: dose: 25.0 mg/kg/injection, schedule: Q04DX003 (ip), vehicle: other 102 % of control | dose: 50.0 mg/kg/injection, schedule: Q04DX003 (ip), vehicle: other 102 % of control | dose: 100.0 mg/kg/injection, schedule: Q04DX003 (ip), vehicle: other 93 % of control | dose: 200.0 mg/kg/injection, schedule: Q04DX003 (ip), vehicle: other 106 % of control and 107 % of control | dose: 300.0 mg/kg/injection, schedule: Q04DX003 (ip), vehicle: other 95 % of control

c1ccc(COc2ccc(OCc3ccccc3)cc2)cc1
inactive: dose: 75.0 mg/kg/injection, schedule: Q04DX003 (ip), vehicle: saline with Tween-80 104 % of control | dose: 150.0 mg/kg/injection, schedule: Q04DX003 (ip), vehicle: saline with Tween-80 109 % of control | dose: 300.0 mg/kg/injection, schedule: Q04DX003 (ip), vehicle: saline with Tween-80 104 % of control

Clc1ccc(-c2nc3ncccn3n2)cc1
inactive: [2] 106 % of control | [3] 95 % of control | [4] 91 % of control and 95 % of control | [6] 101 % of control

Cc1ccc(S(=O)(=O)OCC(C)(C)NC(=O)c2ccc([N+](=O)[O-])cc2)cc1
inactive: dose: 50.0 mg/kg/injection, schedule: Q01DX001 (ip), vehicle: saline with Tween-80 100 % of control | dose: 100.0 mg/kg/injection, schedule: Q01DX001 (ip), vehicle: saline with Tween-80 105 % of control | dose: 200.0 mg/kg/injection, schedule: Q01DX001 (ip), vehicle: saline with Tween-80 110 % of control

c1cc[c]([Pb]([c]2ccccc2)([c]2ccccc2)[n]2ccc3ccccc32)cc1
inactive: dose: 0.78 mg/kg/injection, schedule: Q01DX009 (ip), vehicle: saline 100 % of control | dose: 1.05 mg/kg/injection, schedule: Q01DX009 (ip), vehicle: Klucel (hydroxypropylcellulose) (HPC) 103 % of control | dose: 1.05 mg/kg/injection, schedule: Q01DX009 (ip), vehicle: other 108 % of control | dose: 2.05 mg/kg/injection, schedule: Q01DX009 (ip), vehicle: saline 115 % of control | dose: 2.08 mg/kg/injection, schedule: Q01DX009 (ip), vehicle: Klucel (hydroxypropylcellulose) (HPC) 94 % of control | dose: 2.08 mg/kg/injection, schedule: Q01DX009 (ip), vehicle: other 108 % of control and 109 % of control | dose: 3.12 mg/kg/injection, schedule: Q01DX009 (ip), vehicle: Klucel (hydroxypropylcellulose) (HPC) 108 % of control | dose: 3.12 mg/kg/injection, schedule: Q01DX009 (ip), vehicle: other 100 % of control | dose: 4.68 mg/kg/injection, schedule: Q01DX009 (ip), vehicle: Klucel (hydroxypropylcellulose) (HPC) 109 % of control

COC(=O)C(C#N)=N/C(=C/C=C1/N(C)c2ccccc2C1(C)C)c1ccccc1
inactive: [4] 102 % of control | dose: 100.0 mg/kg/injection, schedule: Q01DX009 (ip), vehicle: saline with Tween-80 96 % of control | [6] 97 % of control
